The source of these data is ChEMBL document CHEMBL1137031, “Synthesis and antibacterial activity of C-6 carbamate ketolides, a novel series of orally active ketolide antibiotics” (2004).

Assay [1] concerns Staphylococcus aureus. Put plainly: Minimum inhibitory concentration against Staphylococcus aureus OC4172 in presence of mouse serum. The assay is classed as functional.
The subject of assay [2] is Streptococcus pneumoniae. Description: Minimum inhibitory concentration against Streptococcus pneumoniae OC9132.
The test system of another assay is Haemophilus influenzae. Put plainly: Minimum inhibitory concentration against Haemophilus influenzae OC4482.
In assay [3] the test system is Mus musculus. Put plainly: Effective dose against Staphylococcus aureus infected murine was tested after subcutaneous injection. As to conditions: sc. The assay is classed as functional.
The test system of assay [4] is Staphylococcus haemolyticus. Put plainly: Minimum inhibitory concentration against Staphylococcus haemolyticus OC4545.
Assay [5] relates to Mus musculus. Description: Percent survival of Staphylococcus aureus infected murine was tested after subcutaneous injection of 10 mg/kg dose. The assay is classed as functional. As to conditions: sc.
Assay [6] concerns Streptococcus pneumoniae. Description: Minimum inhibitory concentration against Streptococcus pneumoniae OC4051.
For assay [7], the system named is Mus musculus. Put plainly: Percent survival of Staphylococcus aureus infected murine was tested after peroral injection of 20 mg/kg dose. The assay is classed as functional. As to conditions: route oral.
The test system of assay [8] is Staphylococcus haemolyticus. Description: Minimum inhibitory concentration against Staphylococcus haemolyticus OC3882.
The species named for assay [9] is Mus musculus. Description: Effective dose against Staphylococcus aureus infected murine was tested after peroral injection. The assay is classed as functional.
The test system of assay [10] is Staphylococcus aureus. Description: Minimum inhibitory concentration against Staphylococcus aureus OC4172. The class given is functional.
Assay [11] relates to Streptococcus pneumoniae. Description: Minimum inhibitory concentration against Streptococcus pneumoniae OC4421.

Each structure is given as a SMILES string. ≈ marks a conversion by molar mass, not a printed value.

As for `CC[C@H]1OC(=O)C(C)C(=O)[C@H](C)[C@@H](O[C@@H]2O[C@H](C)C[C@H](N(C)C)[C@H]2O)[C@](C)(OC(=O)N/C=C/c2ccc(-c3ncccn3)cc2)C[C@@H](C)C(=O)[C@H](C)[C@H]2NC(=O)O[C@@]21C` (some centres undefined), the MIC in the assay on Staphylococcus aureus [1] was 0.25 µg/mL; against Streptococcus pneumoniae [2], 0.03 µg/mL (≈ 0.0365 µM); in the assay with Haemophilus influenzae it was 4 µg/mL (≈ 4.87 µM); in assay [4], above 16 µg/mL; against Streptococcus pneumoniae [6], 0.06 µg/mL (≈ 0.073 µM); in assay [8] it was 0.12 µg/mL (≈ 0.146 µM). Further, the MIC is 0.12 µg/mL (≈ 0.146 µM) in the assay on Staphylococcus aureus [10] and 0.06 µg/mL (≈ 0.073 µM) in the assay on Streptococcus pneumoniae [11]. For the same molecule, the results for the ED50 in the assay on Mus musculus [3] and in the assay listed under Mus musculus [9] were 1.8 mg/kg and 15 mg/kg, respectively. For the same molecule, the survival at 10 mg/kg with Mus musculus [5] was found to be 100%. Moreover, the survival at 20 mg/kg in the assay with Mus musculus [7] came out at 40%.

`CC[C@H]1OC(=O)C(C)C(=O)[C@H](C)[C@@H](O[C@@H]2O[C@H](C)C[C@H](N(C)C)[C@H]2O)[C@](C)(OC(=O)N/C=C/c2ccc(-n3cccn3)cc2)C[C@@H](C)C(=O)[C@H](C)[C@H]2NC(=O)O[C@@]21C` (some centres undefined): the MIC with Staphylococcus aureus [1] was 0.25 µg/mL; against Streptococcus pneumoniae [2] it was 0.03 µg/mL (≈ 0.037 µM); against Haemophilus influenzae it was 4 µg/mL (≈ 4.94 µM); in assay [4] it was above 16 µg/mL; in the assay with Streptococcus pneumoniae [6], 0.06 µg/mL (≈ 0.0741 µM); in assay [8], 0.12 µg/mL (≈ 0.148 µM). Moreover, the MIC in the assay with Staphylococcus aureus [10] came out at 0.12 µg/mL (≈ 0.148 µM); in the assay with Streptococcus pneumoniae [11] it was 0.06 µg/mL (≈ 0.0741 µM). The figures for the ED50 with Mus musculus [3] and in the assay listed under Mus musculus [9] were 7.1 mg/kg and above 30 mg/kg, respectively. This molecule returned a survival at 10 mg/kg in the assay with Mus musculus [5] of 80%. Further, in the assay with Mus musculus [7], the survival at 20 mg/kg was 60%.

A word on the ED50: it is the midpoint of the dose-response relation. A higher ED50 goes with a need for a large dose.
